Test results published in patent US4260608A, “Maytansinoids, pharmaceutical compositions thereof and methods of use thereof” (Takeda Chemical Industries, Ltd., priority 1978, dated 1981).
In brackets after ≈: the same amount, converted by molar mass. Read-outs that look alike come from different tables or passages of the source.

Columns and labels:
Tetrahymena pyriformis W = assay: Antiprotozoal activity, growth inhibition by serial dilution method; format: cell-based
Protocol: Antiprotozoal activity of compound (I) was assayed with Tetrahymena pyriformis W as the test organism and a medium composed of 20 g tryptose-peptone (Difco Co.), 1 g yeast extract, 2 g glucose, 1000 ml distilled water, 10 ml 1 M phosphate buffer (pH 7.0) as the assay medium. The microorganism was incubated at 28° C. for 44 to 48 hours and the growth inhibitory activity of compound (I) was assayed by the serial dilution method.

[1] = system: melanoma B-16 tumor cells; assay: Antitumor activity, life span prolongation in mice transplanted intraperitoneally with melanoma B-16; format: in vivo; settings: intraperitoneal, once daily for 9 consecutive days
Protocol: Therapeutic tests were carried out in mice according to NCI-protocol 1,300, Cancer Chemother, Reports, Part 3, 1972, Vol. 3, No. 2, in which melanoma B-16 tumor cells had been intraperitoneally transplanted, compound (I) being administered intraperitoneally once daily for 9 consecutive days.

[2] = Tetrahymena pyriformis W, 28° C., 44 to 48 hours, pH 7.0 medium, serial dilution, read-out: Antiprotozoal activity MIC

`COc1cc2cc(c1Cl)N(C)C(=O)CC(OC(=O)[C@@H](C)N(C)C(=O)OC(C)(C)C)C1(C)OC1C(C)C1CC(O)(NC(=O)O1)C(OC)C=CC=C(C)C2` (stereo partly drawn) [maytansinol 3-(N-tert-butoxycarbonyl-N-methyl)-D-alanine ester] showed an MIC (Tetrahymena pyriformis W; [2]) of 8 µg/mL (≈ 10.7 µM).

In the case of `COc1cc2cc(c1Cl)N(C)C(=O)CC(OC(=O)[C@H](Cc1ccccc1)NC(=O)OC(C)(C)C)C1(C)OC1C(C)C1CC(O)(NC(=O)O1)C(OC)C=CC=C(C)C2` (stereo partly drawn) [maytansinol 3-(N-t-butyloxycarbonyl)-L-phenylalanine ester], the MIC (Tetrahymena pyriformis W; [2]) is reported as 4 µg/mL (≈ 4.92 µM).

In the case of `COc1cc2cc(c1Cl)N(C)C(=O)CC(OC(=O)[C@H](CC(C)C)N(C)C(C)=O)C1(C)OC1C(C)C1CC(O)(NC(=O)O1)C(OC)C=CC=C(C)C2` (stereo partly drawn) [maytansinol 3-(N-acetyl-N-methyl)-L-leucine ester], the “Antitumor activities B-16 (T/C %)” value ([1]; 25 μg/kg) is reported as 171%, the “Antitumor activities B-16 (T/C %)” value ([1]; 50 μg/kg) is reported as 209% and the “Antitumor activities B-16 (T/C %)” value ([1]; 100 μg/kg) is reported as 202%. For the same molecule, the “Antitumor activities B-16 (T/C %)” value ([1]; 200 μg/kg) was 65% and the MIC (Tetrahymena pyriformis W; [2]) was 2 µg/mL (≈ 2.72 µM).

`COc1cc2cc(c1Cl)N(C)C(=O)CC(OC(=O)[C@@H](CC(C)C)N(C)C(C)=O)C1(C)OC1C(C)C1CC(O)(NC(=O)O1)C(OC)C=CC=C(C)C2` (stereo partly drawn) [maytansinol 3-(N-acetyl-N-methyl)-D-leucine ester] showed an MIC (Tetrahymena pyriformis W; Tetrahymena pyriformis, pH 7, read-out: Antiprotozoal activity MIC) of 28 µg/mL (≈ 38.1 µM).

In the case of `COc1cc2cc(c1Cl)N(C)C(=O)CC(OC(=O)[C@H](C)N(C)C(=O)OC(C)(C)C)C1(C)OC1C(C)C1CC(O)(NC(=O)O1)C(OC)C=CC=C(C)C2` (stereo partly drawn) [maytansinol 3-(N-tert-butoxycarbonyl-N-methyl)-L-alanine ester], the “Antitumor activities B-16 (T/C %)” value ([1]; 12.5 μg/kg) is reported as 163%, the “Antitumor activities B-16 (T/C %)” value ([1]; 25 μg/kg) is reported as 178% and the “Antitumor activities B-16 (T/C %)” value ([1]; 50 μg/kg) is reported as 198%. The “Antitumor activities B-16 (T/C %)” value ([1]; 100 μg/kg) was 193% and the MIC (Tetrahymena pyriformis W; [2]) was 0.4 to 0.8 µg/mL (≈ 0.533 to 1.07 µM).

With `COc1cc2cc(c1Cl)N(C)C(=O)CC(OC(=O)[C@H](Cc1ccccc1)N(C)C(C)=O)C1(C)OC1C(C)C1CC(O)(NC(=O)O1)C(OC)C=CC=C(C)C2` (stereo partly shown) the “Antitumor activities B-16 (T/C %)” value ([1]; 25 μg/kg) was 211%, the “Antitumor activities B-16 (T/C %)” value ([1]; 50 μg/kg) was 208% and the “Antitumor activities B-16 (T/C %)” value ([1]; 100 μg/kg) was 205%. For the same molecule, the “Antitumor activities B-16 (T/C %)” value ([1]; 200 μg/kg) was 95% and the MIC (Tetrahymena pyriformis W; [2]) was 1 µg/mL (≈ 1.3 µM).

`COc1cc2cc(c1Cl)N(C)C(=O)CC(OC(=O)[C@H](C)N(C)C(=O)c1ccccc1)C1(C)OC1C(C)C1CC(O)(NC(=O)O1)C(OC)C=CC=C(C)C2` (stereo partly drawn) [maytansinol 3-(N-benzoyl-N-methyl)-L-alanine ester] gave an MIC (Tetrahymena pyriformis W; [2]) of 2 to 4 µg/mL (≈ 2.65 to 5.3 µM).
